{"source": "paper PMC10987543", "about": "(Cell Death Discovery, 2024)", "key": {"[1]": {"test_system": "DC2.4 murine dendritic cells", "assay": "Immunogenicity experiment: cytokine expression in dendritic cells (qPCR)", "type": "cell-based", "conditions": "DC2.4 cells, 2 h with conditioned media from 4T1 cells treated with 100 µM CKS1; N = 4", "description": "Two-lakh cells of 4T1 cells were seeded in wells of a 6-well plate. After overnight incubation, the media was replaced with 500 µL of fresh media, and 4T1 cells were treated with either 100 µM CKS1 or water for 2 h. In a separate well, 500 µL of fresh media was added and 100 µM CKS1 was incubated for 2 h. After the 2 h of incubation, all the supernatant was collected, filtered with 0.22 µm syringe filter, and was stored at −80 °C. Five lakh cells of DC2.4 cells were seeded in wells of a 24-well plate. After overnight incubation, the media was replaced with fresh media, supernatant from 4T1 cells treated with water, supernatant from 4T1 cells treated with 100 µM CKS1, or media containing 100 µM CKS1. DC2.4 cells were incubated for 2 h before RNA extraction.\nRNA extraction was conducted using QIAwave RNA Mini Kit (Qiagen, Germany, 74535) following the manufacturer’s instructions. […]\nReal-time qPCR was conducted using PowerUp SYBR Green Master Mix for qPCR (Thermo Fisher Scientific, A25741) following the manufacturer’s instructions. […] The relative quantity of TNF, IL-6, and IL-12b was normalized to the relative quantity of GAPDH. Finally, the expression level of the cytokines was normalized to the control sample and the fold change was calculated."}, "[2]": {"test_system": "4T1 tumors", "assay": "4T1 triple breast cancer model, intratumoral treatment", "type": "in vivo, Balb/c mice", "description": "The protocols used in this study were approved by the Institutional Care and Use Committee at Johns Hopkins Medical Institutions. Four- to eight-week-old female Balb/c mice were obtained from Charles River (Wilmington, MA). For the 4T1 […] model, 2.5 × 10^4 4T1 cells were injected into the first mammary fat pad of each mouse. For the CT26 colon carcinoma model, 1.0 × 10^6 CT26 cells were injected subcutaneously in the left flank. The sample size was determined so that the final distribution would be close to normal distribution. After 1 week, the animals were randomized into control and CKS1 treatment. During the randomization, the mice were kept in a cage covered with cloth so that the investigator could not see the tumor size. We started daily intratumoral treatment with 40 mg/kg CKS1. For the control group, the matching volume of water was treated intratumorally. The tumor size was measured by using a caliper, and the volume was calculated by using the formula 0.52 × (length) × (width)^2.\nTumors were fixed by immersion in 10% neutral buffered formalin (Millipore Sigma) for 48 h and subsequently dehydrated by immersion in 70%, 90%, and 100% ethanol followed by xylene for two changes of 30 min each. Tissues were embedded in paraffin blocks at 58 °C and sectioned at 4 μm using a microtome. […]"}, "[3]": {"test_system": "4T1 cells", "assay": "Quantification of HMGB-1 release (ELISA)", "type": "cell-based, murine", "conditions": "100 µM, 6 h, N = 3", "description": "(§1) Fifteen thousand cells of 4T1 cells or CT26 cells in growth media were seeded in wells of a 96-well plate. After 12 h, the media was replaced with serum-free media, and the cells were treated with the corresponding concentration of CKS1. The cells were treated with CKS1 for 6 h and the supernatant was collected from each well. After filtering the supernatant with a 0.2 µm pore filter (Corning, 431229), the amount of HMGB-1 in the supernatant was quantified using the Mouse/Rat HMGB1 ELISA kit (arigo biolaboratories, ARG81310)."}, "[4]": {"test_system": "CT26 cells", "assay": "Quantification of HMGB-1 release (ELISA)", "type": "cell-based, murine", "conditions": "100 µM, 6 h, N = 3", "description": "as §1"}}, "note": "Entries after “also recorded” stand apart in the source; their conditions may differ. Ends that are not written are not given here.", "data": [{"substance": "NGRKACLNPASPIVKKIIEKMLNS-NH2 [CKS1, Chemokinostatin-1]", "values": [{"measurement": "expression level of TNF, IL-6, IL-12b", "setting": "[1]", "value": "significantly increased the expression level of the cytokines"}, {"measurement": "tumor growth (tumor volume)", "setting": "[2]; 4T1 tumors, 40 mg/kg intratumoral daily from day 7, N = 15, 40 mg/kg", "value": "inhibited; also recorded: relatively modest response"}, {"measurement": "tumor necrosis (H&E stain)", "setting": "[2]; established 4T1 tumors, intratumoral injection, 24 h, representative of N = 3", "value": "Necrosis was observed"}, {"measurement": "release of HMGB-1 in the culture media", "setting": "[3]", "value": "weak"}, {"measurement": "release of HMGB-1 in the culture media", "setting": "[4]", "value": "significant release of HMGB-1"}]}]}
